One assay has as its target T1, human TLR8 (Homo sapiens, UniProt Q9NR97).
T1 construct: endogenous in cells; host or cells: primary human monocytes (CD14 microbeads) from buffy coats of healthy donors
T1 sequence (Q9NR97 27-1041): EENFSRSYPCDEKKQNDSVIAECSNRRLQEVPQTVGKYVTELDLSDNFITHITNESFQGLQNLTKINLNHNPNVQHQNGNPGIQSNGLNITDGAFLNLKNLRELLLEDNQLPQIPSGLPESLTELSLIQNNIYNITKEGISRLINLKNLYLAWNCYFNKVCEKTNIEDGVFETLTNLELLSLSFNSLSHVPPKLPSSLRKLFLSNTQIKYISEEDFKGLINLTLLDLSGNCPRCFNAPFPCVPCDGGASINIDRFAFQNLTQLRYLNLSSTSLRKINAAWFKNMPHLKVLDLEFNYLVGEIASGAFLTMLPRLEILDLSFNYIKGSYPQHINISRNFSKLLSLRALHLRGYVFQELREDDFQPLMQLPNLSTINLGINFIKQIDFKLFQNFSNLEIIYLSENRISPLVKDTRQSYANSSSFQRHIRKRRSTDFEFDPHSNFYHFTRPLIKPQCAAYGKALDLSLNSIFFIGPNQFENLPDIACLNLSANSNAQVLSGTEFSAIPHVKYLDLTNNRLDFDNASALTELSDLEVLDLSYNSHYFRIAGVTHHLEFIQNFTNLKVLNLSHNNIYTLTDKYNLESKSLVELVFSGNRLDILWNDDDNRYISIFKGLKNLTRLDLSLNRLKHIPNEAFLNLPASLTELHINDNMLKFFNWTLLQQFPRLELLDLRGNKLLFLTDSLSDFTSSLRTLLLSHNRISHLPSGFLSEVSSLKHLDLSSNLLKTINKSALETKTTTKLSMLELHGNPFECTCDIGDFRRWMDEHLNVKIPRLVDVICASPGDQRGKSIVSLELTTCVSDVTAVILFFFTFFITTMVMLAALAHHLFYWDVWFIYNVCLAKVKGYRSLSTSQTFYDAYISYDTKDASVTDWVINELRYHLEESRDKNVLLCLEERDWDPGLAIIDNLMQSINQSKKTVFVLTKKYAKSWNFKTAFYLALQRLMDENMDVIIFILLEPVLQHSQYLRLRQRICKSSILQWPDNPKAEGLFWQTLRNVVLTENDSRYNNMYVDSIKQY
Nature of the assay: Inhibition of human TLR8 in human monocytes (TNF-alpha / IL-1 beta ELISA). Format: cell-based. Conditions: for IC50: human monocytes, agonist ORN8L 100 μg/mL, 24 hours. An outline of the steps: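 Primary human monocytes from donor buffy coats (~200,000 cells/well) given serially diluted compound, then ORN8L RNA oligonucleotide agonist at 100 μg/mL final. After 24 h at 37 °C, supernatant TNF-alpha and/or IL-1 beta measured by ELISA; IC50 from the concentration-response of cytokine release.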
(In an ELISA, binding on a coated surface is turned into a signal by an enzyme label.)

For the next assay, the target named is T2, human TLR9 (Homo sapiens, UniProt Q9NR96).
T2 construct: endogenous in cells; host or cells: primary human B cells (CD19 microbeads) from buffy coats of healthy donors
T2 sequence (Q9NR96 26-1032): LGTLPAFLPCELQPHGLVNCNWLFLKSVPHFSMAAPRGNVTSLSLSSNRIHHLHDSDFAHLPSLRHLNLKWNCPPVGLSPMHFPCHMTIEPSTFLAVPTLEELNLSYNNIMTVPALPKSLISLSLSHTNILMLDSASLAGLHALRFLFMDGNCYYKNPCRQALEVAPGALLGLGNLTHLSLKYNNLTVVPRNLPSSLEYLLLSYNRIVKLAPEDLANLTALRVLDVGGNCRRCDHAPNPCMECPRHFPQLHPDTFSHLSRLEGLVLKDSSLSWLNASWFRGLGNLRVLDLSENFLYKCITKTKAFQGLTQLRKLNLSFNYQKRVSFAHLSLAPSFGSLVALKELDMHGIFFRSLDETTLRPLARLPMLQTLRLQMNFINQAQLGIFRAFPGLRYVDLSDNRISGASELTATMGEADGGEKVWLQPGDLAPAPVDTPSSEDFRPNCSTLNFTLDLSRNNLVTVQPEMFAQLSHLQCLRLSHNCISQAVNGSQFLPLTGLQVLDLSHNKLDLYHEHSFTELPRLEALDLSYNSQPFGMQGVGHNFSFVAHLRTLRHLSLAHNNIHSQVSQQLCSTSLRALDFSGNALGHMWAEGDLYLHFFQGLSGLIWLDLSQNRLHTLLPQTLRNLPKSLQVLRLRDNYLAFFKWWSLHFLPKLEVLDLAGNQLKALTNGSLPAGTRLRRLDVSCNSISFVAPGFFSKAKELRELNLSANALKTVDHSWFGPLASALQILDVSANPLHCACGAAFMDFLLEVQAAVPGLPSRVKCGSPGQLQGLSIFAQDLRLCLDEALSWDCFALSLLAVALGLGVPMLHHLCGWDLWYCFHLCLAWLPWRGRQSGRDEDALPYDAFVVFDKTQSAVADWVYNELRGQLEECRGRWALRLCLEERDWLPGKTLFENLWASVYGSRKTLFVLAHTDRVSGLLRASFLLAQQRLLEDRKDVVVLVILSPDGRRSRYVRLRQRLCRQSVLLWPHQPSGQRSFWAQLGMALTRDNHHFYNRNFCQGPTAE
Nature of the assay: Inhibition of human TLR9 in human B cells (IL-6 ELISA). Format: cell-based. The conditions noted are these: for IC50: human B cells, agonist 1018 ISS 1 μM; for inhibits TLR9-dependent responses (in words): summary statement of the description. The method, boiled down:
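Primary human B cells (CD19-isolated from donor buffy coats), ~300,000 per well, treated with compound (about 0.01–10 μM, some 0.001–30 μM) then 1 μM CpG oligonucleotide 1018 ISS. After 48 hours at 37° C, supernatant IL-6 measured by ELISA; IC50 from concentration-response of TLR9-dependent activity.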

[1] abbreviates: TNF-alpha readout, read-out: Human TLR8 IC50 TNF-a.
Setting [2] is: IL-6 readout, 48 hours, range about 0.01 to 10 μM, read-out: Human TLR9 IC50.
Setting [3] is: IL-1 beta readout, read-out: Human TLR8 IC50 IL-1b.

From patent publication US11370794B2, “Toll-like receptor antagonist compounds and methods of use” (Dynavax Technologies Corporation, priority 2016, dated 2022) come the findings set out here.

Where two headings read alike, the source gives them in different places.

As a reminder, the IC50 is the point on the concentration scale where inhibition reaches its midpoint. For `Cc1ccc(-n2nc3c(N4CCC(C(=O)NCCCN(C)C)CC4)nnc(I)c3c2C)cc1` [compound 41, N-(3-(dimethylamino)propyl)-1-(4-iodo-3-methyl-2-(p-tolyl)-2H-pyrazolo[3,4-d]pyridazin-7-yl)piperidine-4-carboxamide], the IC50 was ≥ 20 µM at human TLR8 (setting [1]) and 0.793 µM at human TLR9 (setting [2]).
Take `Cc1ccc(-n2cc3cnnc(N4CCC(C(=O)NCCN(C)C)CC4)c3n2)cc1` [compound 46, N-(2-(dimethylamino)ethyl)-1-(2-(p-tolyl)-2H-pyrazolo[3,4-d]pyridazin-7-yl)piperidine-4-carboxamide]: the IC50 was ≥ 20 µM at human TLR8 (setting [1]); 0.01 µM on human TLR9 (IL-6, 48 hours, expanded dilution series about 0.001 to 30 μM, read-out: Human TLR9 IC50, expanded dilution series); 0.002 µM on human TLR9 (setting [2]). Besides, the “inhibits TLR9-dependent responses (in words)” value against human TLR9 was “inhibit”.
For the compound `Cc1ccc(-n2nc3c(N4CCC(C(=O)NCCCCCN(C)C)CC4)nnc(C)c3c2C)cc1` [compound 32, 1-(3,4-dimethyl-2-(p-tolyl)-2H-pyrazolo[3,4-d]pyridazin-7-yl)-N-(5-(dimethylamino)pentyl)piperidine-4-carboxamide], the IC50 was > 10 µM at human TLR8 (setting [3]), > 10 µM on human TLR8 (setting [1]) and 0.055 µM on human TLR9 (setting [2]).
For `Cc1nnc(N2CCC(C(=O)N3CCN(C)CC3)CC2)c2nn(-c3ccccc3)c(C)c12` [59x, (1-(3,4-dimethyl-2-phenyl-2H-pyrazolo[3,4-d]pyridazin-7-yl)piperidin-4-yl)(4-methylpiperazin-1-yl)methanone], the IC50 came out at 2.11 µM at human TLR8 (setting [3]), 2.04 µM at human TLR8 (setting [1]) and 0.059 µM at human TLR9 (setting [2]).
As to `Cc1nnc(N2CCC(C(=O)NCCCN(C)C)CC2)c2nn(-c3ccsc3)c(C)c12` [compound 24, 1-(3,4-dimethyl-2-(thiophen-3-yl)-2H-pyrazolo[3,4-d]pyridazin-7-yl)-N-(3-(dimethylamino)propyl)piperidine-4-carboxamide], the values for the IC50 on human TLR8 (setting [1]) and on human TLR9 (setting [2]) were ≥ 20 µM and 0.4 µM, respectively.
For `CCCCN(CC)CCNC(=O)C1CCN(c2nnc(C)c3c(C)n(-c4ccccc4)nc23)CC1` [25x, N-(2-(butyl(ethyl)amino)ethyl)-1-(3,4-dimethyl-2-phenyl-2H-pyrazolo[3,4-d]pyridazin-7-yl)piperidine-4-carboxamide], the IC50 amounted to 4.54 µM on human TLR8 (setting [3]), 4.85 µM on human TLR8 (setting [1]) and 0.041 µM on human TLR9 (setting [2]). Also, on human TLR9, the “inhibits TLR9-dependent responses (in words)” value is reported as “inhibit”.
As to `Cc1ccc(-n2nc3c(N4CCC(C(=O)N5CCC6(CC5)CNC6)CC4)nnc(C)c3c2C)cc1` [compound 73, (1-(3,4-dimethyl-2-(p-tolyl)-2H-pyrazolo[3,4-d]pyridazin-7-yl)piperidin-4-yl)(2,7-diazaspiro[3.5]nonan-7-yl)methanone], the IC50 on human TLR8 (setting [1]) was ≥ 20 µM; on human TLR9 (setting [2]), 1.14 µM.
For `Cc1ccc(-n2nc3c(N4CCC(C(=O)N5CCC(N(C)Cc6ccccc6)CC5)CC4)nnc(C)c3c2C)cc1` [compound 67, (4-(benzyl(methyl)amino)piperidin-1-yl)(1-(3,4-dimethyl-2-(p-tolyl)-2H-pyrazolo[3,4-d]pyridazin-7-yl)piperidin-4-yl)methanone], the IC50 was found to be 0.48 µM on human TLR8 (setting [1]) and 0.049 µM at human TLR9 (setting [2]). Also, at human TLR8 (summary statement of the description), the “inhibits TLR8-dependent responses (in words)” value is “inhibit”. The “inhibits TLR9-dependent responses (in words)” value at human TLR9 is listed as “inhibit”.
Turning to `Cc1ccc(-n2cc3cnnc(N4CCC(C(=O)NCCN5CCOCC5)CC4)c3n2)cc1` [compound 64, N-(2-morpholinoethyl)-1-(2-(p-tolyl)-2H-pyrazolo[3,4-d]pyridazin-7-yl)piperidine-4-carboxamide], the IC50 at human TLR8 (setting [1]) was ≥ 20 µM; at human TLR9 (setting [2]), 0.557 µM.
For `Cc1ccc(-n2nc3c(N4CCC(C(=O)NCCN(C)C)CC4)nnc(C)c3c2C)cc1` [Compound No. 21x, 1-(3,4-dimethyl-2-(p-tolyl)-2H-pyrazolo[3,4-d]pyridazin-7-yl)-N-(2-(dimethylamino)ethyl)piperidine-4-carboxamide], the IC50 on human TLR8 (setting [3]) was > 10 µM; at human TLR8 (setting [1]) it was > 10 µM; at human TLR9 (setting [2]) it was 0.004 µM. The “inhibits TLR9-dependent responses (in words)” value at human TLR9 is listed as “inhibit”.
As for `Cc1ccc(-n2nc3c(N4CCC(C(=O)NCCCN5CCc6ccccc65)CC4)nnc(C)c3c2C)cc1` [2-4], the IC50 on human TLR8 (setting [3]), on human TLR8 (setting [1]) and at human TLR9 (setting [2]) was > 10 µM in each case.
